Source: patent publication US6197768A, “Pyridocarbazole derivatives having cgmp-pde inhibitory activity” (Mochida Pharmaceutical Co., Ltd., priority 1996, dated 2001)

How the values were obtained:
PDE type I = assay: PDE Inhibiting Activity, type I; format: biochemical, dog (canine aorta); details: PDE type I from canine aorta, 1 μM substrate, pH 7.5; read-out: Inhibition Activity IC50, Type I
Protocol: (§1) On the basis of the method of Lugnier et al. (Biochem. Pharmacol., 35, 1743-1751, 1986), PDE was purified from the aorta in a dog. The canine aorta was minced and homogenized with a Waring Blender and a glass homogenizer in six volumes of a Tris-HCl buffer solution (pH 7.5, 20 mM) containing 2 mM magnesium acetate, 5 mM ethylenediaminetetraacetic acid (EDTA), 100 μg/mL of phenylmethylsulforyl fluoride and 15 mM 2-mercaptoethanol (2-ME), and centrifuged at 1200 xg for 30 min. The supernatant was separated and salted out with ammonium sulfate which was added to 45% saturation. The resulting precipitated fraction was resuspended in a Tris-HCl buffer solution (pH 7.5, 20 mM) containing 2 mM magnesium acetate and 1 mM 2-ME, dialyzed overnight and applied to a DEAE-trisacryl column (DEAE […] M:IBF). By elution with a sodium chloride gradient (0-0.4 M), PDE types V and III were separated from the other isozymes. The supernatant fraction of 45% saturated ammonium sulfate was further mixed with ammonium sulfate to 65% saturation and salted out. The resulting precipitated fraction was similarly applied to the DEAE-trisacryl column and eluted by a sodium chloride gradient (0-0.4 M) so as to separate PDE type I.
(§2) The thus obtained PDE types V, III and I were measured for their activity in accordance with the method of Thompson et al. (Adv. Cyclic Nucleotide Res., 10, 69-72, 1979) and the method of Wells et al. (Biochim. Biophys. Acta, 384, 430-443, 1975). Specifically, a purified PDE sample was added to 50 mM Tris-HCl buffer solution (pH 7.5) containing 1 μM of substrate cGMP or cAMP (containing tritium-labelled cGMP or cAMP), 1 mM EGTA and 2 mM magnesium acetate. For PDE activity measurement, enzymatically produced 5' GMP or 5' AMP was further hydrolyzed into guanosine or adenosine with snake venom and separated from the substrate by means of an ion-exchange resin (Dowex 1-X2), followed by measuring with a scintillation counter. The activity of each test compound was determined as a percentage of the DPE activity measured when it was added as a dimethyl sulfoxide solution (DMSO) and its IC50 (50% inhibition concentration) was calculated by the probit method. The final concentration of DMSO was adjusted to be no more than 2% in consideration of the effect on PDE activity.

PDE type III = target: T1, PDE type III (Canis lupus familiaris, UniProt A0A8I3NYE0); assay: PDE Inhibiting Activity, type III; format: biochemical, dog (canine aorta); details: PDE type III from canine aorta, 1 μM substrate, pH 7.5; read-out: Inhibition Activity IC50, Type III
T1 construct: PDE was purified from the aorta in a dog; from tissue; host or cells: dog aorta
T1 sequence (A0A8I3NYE0 1-1135): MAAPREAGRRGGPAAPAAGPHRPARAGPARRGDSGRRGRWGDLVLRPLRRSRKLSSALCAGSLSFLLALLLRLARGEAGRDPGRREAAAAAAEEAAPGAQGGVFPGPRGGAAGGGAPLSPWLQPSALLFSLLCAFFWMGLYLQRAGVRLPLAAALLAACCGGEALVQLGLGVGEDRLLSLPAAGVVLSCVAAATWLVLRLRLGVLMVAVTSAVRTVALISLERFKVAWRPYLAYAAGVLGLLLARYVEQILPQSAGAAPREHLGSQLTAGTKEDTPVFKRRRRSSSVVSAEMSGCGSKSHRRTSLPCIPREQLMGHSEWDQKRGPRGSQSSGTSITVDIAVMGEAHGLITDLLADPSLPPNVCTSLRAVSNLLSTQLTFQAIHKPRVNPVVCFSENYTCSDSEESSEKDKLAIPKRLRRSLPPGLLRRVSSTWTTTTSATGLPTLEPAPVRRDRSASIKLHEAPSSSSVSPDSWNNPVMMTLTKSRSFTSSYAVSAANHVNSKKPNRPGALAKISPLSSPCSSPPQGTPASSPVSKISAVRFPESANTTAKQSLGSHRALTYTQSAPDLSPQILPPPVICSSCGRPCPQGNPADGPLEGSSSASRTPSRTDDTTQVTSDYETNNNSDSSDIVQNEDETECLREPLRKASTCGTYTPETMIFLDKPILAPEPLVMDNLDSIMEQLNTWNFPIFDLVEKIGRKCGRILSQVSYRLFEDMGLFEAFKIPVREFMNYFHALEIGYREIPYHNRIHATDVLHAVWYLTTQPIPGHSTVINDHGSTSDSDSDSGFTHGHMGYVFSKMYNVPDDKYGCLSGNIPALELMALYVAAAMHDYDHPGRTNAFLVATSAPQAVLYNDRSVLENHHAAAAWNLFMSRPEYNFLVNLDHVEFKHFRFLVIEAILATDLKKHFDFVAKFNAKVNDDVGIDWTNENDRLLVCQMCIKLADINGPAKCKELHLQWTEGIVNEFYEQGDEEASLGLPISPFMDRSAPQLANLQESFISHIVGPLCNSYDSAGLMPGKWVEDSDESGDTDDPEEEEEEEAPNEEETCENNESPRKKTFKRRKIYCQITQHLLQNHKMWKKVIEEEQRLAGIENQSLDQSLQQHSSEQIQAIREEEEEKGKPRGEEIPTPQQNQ
Protocol: as §1, §2

SMILES | IC50 (PDE type I) [µM] | IC50 (PDE type III) [µM]
O=c1ccn2c3ccc(Br)cc3c3cc(O)cc1c32 [Example 59, 10-bromo-2-hydroxy-4H-pyrido [3,2,1-jk]carbazole-4-one] | > 100 | > 100
CC(=O)OCc1cncc(COc2cc3c(=O)c(Cc4cccnc4)cn4c5cc(Br)ccc5c(c2)c34)c1 [Example 106, 2-(5-acetoxymethyl-3-pyridylmethyloxy)-9-bromo-5-(3-pyridylmethyl)-4H-pyrido [3,2,1-jk]carbazole-4-one] | > 30 | > 30
CC(=O)Oc1cc2c(=O)ccn3c4ccc(Br)cc4c(c1)c23 [Example 82] | > 100 | > 100
CCCC(=O)COc1cc2c(=O)c(C)cn3c4ccc(Br)cc4c(c1)c23 [Example 57, 10-bromo-2-(2-oxopentyloxy)-5-methyl-4H-pyrido [3,2,1-jk]carbazole-4-one] | > 30 | > 30
Cc1cn2c3ccc(Br)cc3c3cc(O)cc(c1=O)c32 [Example 49, 10-bromo-2-hydroxy-5-methyl-4H-pyrido [3,2,1-jk]carbazole-4-one] | > 300 | 198
O=C(O)COc1cc2c(=O)ccn3c4ccc(Br)cc4c(c1)c23 [Example 63, 10-bromo-2-carboxymethyloxy-4H-pyrido [3,2,1-jk]carbazole-4-one] | > 30 | > 30
COc1cc2c(=O)c(C)cn3c4ccc(Br)cc4c(c1)c23 [Example 48, 10-bromo-2-methoxy-5-methyl-4H-pyrido [3,2,1-jk]carbazole-4-one] | > 100 | > 100
CCOC(=O)COc1cc2c(=O)ccn3c4ccc(Br)cc4c(c1)c23 [Example 62, 10-bromo-2-ethoxycarbonylmethyloxy-4H-pyrido [3,2,1-jk]carbazole-4-one] | > 30 | > 30
O=c1ccn2c3ccc(Br)cc3c3cc(OCc4cccnc4)cc1c32 [Example 64, 10-bromo-2-(3-pyridylmethyloxy)-4H-pyrido [3,2,1-jk]carbazole-4-one] | > 100 | 81
Cc1cc2c(=O)ccn3c4ccc(Br)cc4c(c1)c23 [Example 277] | > 30 | > 30
CCCC(=O)COc1cc2c(=O)ccn3c4ccc(Br)cc4c(c1)c23 [Example 83, 10-bromo-2-(2-oxopentyloxy)-4H-pyrido [3,2,1-jk]carbazole-4-one] | > 30 | > 30
O=c1c(Cc2cccnc2)cn2c3cc(Cl)ccc3c3cc(OCCCO)cc1c32 [Example 283, 9-chloro-2-(3-hydroxypropyloxy)-5-(3-pyridylmethyl)-4H-pyrido[3,2,1-jk]carbazole-4-one] | > 30 | 3.6
O=c1c(Cc2cccnc2)cn2c3ccc(Br)cc3c3cc(O)cc1c32 [Example 2, 10-bromo-2-hydroxy-5-(3-pyridylmethyl)-4H-pyrido [3,2,1-jk]carbazole-4-one] | > 30 | 3.6
O=c1ccn2c3ccc(Br)cc3c3cc(OCc4ccccc4)cc1c32 [Example 66] | > 30 | > 30
CC(C)(C)OC(=O)COc1cc2c(=O)c(Cc3cccnc3)cn3c4cc(Br)ccc4c(c1)c23 [Example 103, 9-bromo-2-t-butoxycarbonyl-methyloxy-5-(3-pyridylmethyl)-4H-pyrido [3,2,1-jk]carbazole-4-one] |  | > 30

Other lines, results leading:

IC50 (PDE type I) [µM] | IC50 (PDE type III) [µM] | SMILES
> 30 | 2.5 | O=c1c(Cc2cccnc2)cn2c3cc(C(F)(F)F)ccc3c3cc(OCCCO)cc1c32 [Example 289, 2-(3-hydroxypropyloxy)-5-(3-pyridylmethyl)-9-trifluoromethyl-4H-pyrido[3,2,1-jk]carbazole-4-one]
> 30 | 11 | O=c1c(Cc2cccnc2)cn2c3ccc(Br)cc3c3cc(OCc4ccccc4)cc1c32 [Example 22, 2-benzyloxy-10-bromo-5-(3-pyridylmethyl)-4H-pyrido [3,2,1-jk]carbazole-4-one]
> 30 | > 30 | O=c1ccn2c3ccc(Br)cc3c3cc(OCc4ncon4)cc1c32 [Example 76]
> 10 | > 10 | COc1cc2c(=O)ccn3c4ccc(Br)cc4c(c1)c23 [Example 58, 10-bromo-2-methoxy-4H-pyrido [3,2,1-jk]carbazole-4-one]
> 30 | 5.6 | CC(=O)Oc1cc2c(=O)c(Cc3cccnc3)cn3c4ccccc4c(c1)c23 [Example 156]
> 30 | 1.9 | O=c1c(Cc2cccnc2)cn2c3ccc(Br)cc3c3cc(OCc4cccnc4)cc1c32 [Example 18, 10-bromo-5-(3-pyridylmethyl)-2-(3-pyridylmethyloxy)-4H-pyrido [3,2,1-jk]carbazole-4-one]
> 30 | > 30 | CCOC(=O)COc1cc2c(=O)c(C)cn3c4ccc(Br)cc4c(c1)c23 [Example 52, 10-bromo-2-ethoxycarbonylmethyloxy-5-methyl-4H-pyrido [3,2,1-jk]carbazole-4-one]
> 30 | > 30 | O=c1c(Cc2cccnc2)cn2c3cc(Br)ccc3c3cc(OCc4cncc(CO)c4)cc1c32 [Example 107, 9-bromo-2-(5-hydroxymethyl-3-pyridylmethyloxy)-5-(3-pyridylmethyl)-4H-pyrido [3,2,1-jk]carbazole-4-one]
> 30 | > 30 | Cc1cn2c3ccc(Br)cc3c3cc(OCC(=O)OC(C)C)cc(c1=O)c32 [Example 51]
> 30 | > 30 | CC(C)OC(=O)COc1cc2c(=O)ccn3c4ccc(Br)cc4c(c1)c23 [Example 61, 10-bromo-2-i-propoxycarbonylmethyloxy-4H-pyrido [3,2,1-jk]carbazole-4-one]
> 30 | > 30 | COc1cc2c(=O)c(Cc3cccnc3)cn3c4cc(Br)ccc4c(c1)c23 [Example 101, 9-bromo-2-methoxy-5-(3-pyridylmethyl)-4H-pyrido [3,2,1-jk]carbazole-4-one]
> 30 | 12 | CC(=O)Oc1ccc2c3cccc4c(=O)c(Cc5cccnc5)cn(c2c1)c43 [Example 226]
> 30 | 19 | CCOC(=O)COc1cc2c(=O)c(Cc3cccnc3)cn3c4ccc(Br)cc4c(c1)c23 [Example 5, 10-bromo-2-ethoxycarbonylmethyloxy-5-(3-pyridylmethyl)-4H-pyrido [3,2,1-jk]carbazole-4-one]
> 30 | 13 | O=c1c(Cc2ccccc2)cn2c3cc(Br)ccc3c3cc(O)cc1c32 [Example 122, 5-benzyl-9-bromo-2-hydroxy-4H-pyrido [3,2,1-jk]carbazole-4-one]
